Experimental data reported in publication PMC8467595, “Protective Effects of Linearthin and Other Chalcone Derivatives from Aspalathus linearis (Rooibos) against UVB Induced Oxidative Stress and Toxicity in Human Skin Cells” (Plants, 2021).
Values after ≈ are worked out from the molar mass of the structure shown. Read-outs that look alike come from different tables or passages of the source.

Columns and labels:
HaCaT cells [1] = test: ATP bioluminescent assay (Cell Titer-Glo); format: cell-based, human; conditions: for ATP vs control cell levels: 24 h pre-exposure, UVB irradiated cells
Method: (§1) For experiments, before exposure to UVB, the cells were conditioned with various concentrations of total extract and isolated compounds thereof for 4 or 24 h. These periods were selected based on the half-life of the compounds as well as previous studies. Exposure to UVB was done according to a previous study. Cells were seeded (3 × 10^4) in 96-well tissue culture microtitre plates. Cell culture media was aspirated and the cells were overlayed with PBS. The cells were exposed to UVB light (80 mJ/cm^2) without the plastic lid. A UVIlink UV Crosslinker (UVitek Ltd., Aberdeen, UK) was fitted with six 8 Watt UV tubes giving a wavelength of 302 nm (Vilber Lourmat, Collégien, France). Control plates were not exposed to UVB light.
The ATP bioluminescent assay was used to quantify cellular ATP. The Cell Titer-Glo® assay (Promega, Madison, WI, USA) was carried out according to the manufacturer’s instructions. Cells were seeded in a white microtitre plate (20,000 cells per well) to which the ATP Cell Titer-Glo® Reagent was added (50 μL). The plate was incubated for 30 min at room temperature (RT) in the dark. Luminescence was measured on a Multiskan Spectrum plate reader (Thermo Fisher Scientific, Waltham, MA, USA). Luminescence is proportional to ATP levels and expressed as relative light units (RLU).

HaCaT cells [2] = test: TBARS lipid peroxidation (MDA); format: cell-based, human; conditions: for MDA levels (lipid peroxidation): HaCaT
Method: as §1
(§2) The thiobarbituric acid reactive substances (TBARS) was used to quantify the levels of melondialdehyde (a marker of lipid peroxidation) in the supernatant of UVB irradiated and non-irradiated cells. The experiments were conducted as previously described. The optical density was measured at 532 nm with a reference wavelength of 600 nm using a plate reader. The mean optical density of five samples per treatment was calculated and divided by the absorption coefficient (156 mM^−1). Results were expressed as MDA concentration (μM). Reduced glutathione (GSH) was quantified using an in-house protocol with minor modifications. After the addition of reagents, the cells were lysed to allow quantification of GSH colourimetrically using a plate reader.

HaCaT cells [3] = test: MTT cytotoxicity assay, pre-treatment 4 or 24 h with or without UVB irradiation; format: cell-based; conditions: Homo sapiens, read-out: IC50 (50% inhibition of viable cell number, MTT)
Method: (§3) The human epidermal keratinocytes (HaCaT) and melanoma (SK-MEL-1) cells used in this study were cultured in Roswell Park Memorial Institute (RPMI) 1640 media supplemented with antibiotics (100 U/mL streptomycin, 100 U/mL penicillin) and fetal calf serum (FCS, 10%). Cells were maintained at 37 °C in a humidified atmosphere of 5% CO2.
as §1
(§4) The MTT assay has been extensively used for determining the cytoprotective effects of several phytochemicals. To monitor cell viability as a measure of metabolic activity the MTT assay was performed. The conditioned HaCat and SK-MEL-1 cells (15,000 cells per well in 96-well plates) were incubated for 2 h using 100 μL MTT solution (5 mg/mL) after PBS washing. The MTT formazan crystals were then solubilised by DMSO resuspension. The optical density of the formazan product was read at 570 nm wavelength with a reference wavelength of 690 nm. The half-maximal inhibitory concentration (IC50) was determined.

SK-MEL-1 cells [4] = test: as above; format: cell-based; conditions: Homo sapiens, read-out: IC50 (50% inhibition of viable cell number, MTT)
Method: as §3, §1, §4

HaCaT cells [5] = test: Caspase 3/7 activation (ApoTox-Glo Triplex Assay); format: cell-based, human; conditions: UVB irradiated cells
Method: as §1
(§5) The ApoTox-Glo™ Triplex Assay (Promega) was used to assess cytotoxicity and apoptosis events in the same cell-based assay well according to the manufacturer’s instructions with no deviation from standard protocol. Both luminescence and fluorescence were detected using a plate reader.

SK-MEL-1 cells [6] = test: Caspase 3/7 activation (ApoTox-Glo Triplex Assay); format: cell-based, human; conditions: SK-MEL-1, UVB irradiated cells
Method: as §1, §5

SK-MEL-1 cells [7] = test: ATP bioluminescent assay (Cell Titer-Glo); format: cell-based, human; conditions: SK-MEL-1, 10 µg/mL, 24-h pre-treatment
Method: For experiments, before exposure to UVB, the cells were conditioned with various concentrations of total extract and isolated compounds thereof for 4 or 24 h. These periods were selected based on the half-life of the compounds as well as previous studies [22, 32]. Exposure to UVB was done according to a previous study. Cells were seeded (3 × 10^4) in 96-well tissue culture microtitre plates. Cell culture media was aspirated and the cells were overlayed with PBS. The cells were exposed to UVB light (80 mJ/cm^2) without the plastic lid. A UVIlink UV Crosslinker (UVitek Ltd., Aberdeen, UK) was fitted with six 8 Watt UV tubes giving a wavelength of 302 nm (Vilber Lourmat, Collégien, France) [22]. Control plates were not exposed to UVB light. The ATP bioluminescent assay was used to quantify cellular ATP. The Cell Titer-Glo® assay (Promega, Madison, WI, USA) was carried out according to the manufacturer’s instructions. Cells were seeded in a white microtitre plate (20,000 cells per well) to which the ATP Cell Titer-Glo® Reagent was added (50 μL). The plate was incubated for 30 min at room temperature (RT) in the dark. Luminescence was measured on a Multiskan Spectrum plate reader (Thermo Fisher Scientific, Waltham, MA, USA). Luminescence is proportional to ATP levels and expressed as relative light units (RLU).

SK-MEL-1 cells [8] = test: TBARS lipid peroxidation (MDA); format: cell-based, human; conditions: SK-MEL-1, 24-h pre-treatment, after UVB exposure
Method: For experiments, before exposure to UVB, the cells were conditioned with various concentrations of total extract and isolated compounds thereof for 4 or 24 h. […] Exposure to UVB was done according to a previous study. Cells were seeded (3 × 10^4) in 96-well tissue culture microtitre plates. Cell culture media was aspirated and the cells were overlayed with PBS. The cells were exposed to UVB light (80 mJ/cm^2) without the plastic lid. A UVIlink UV Crosslinker (UVitek Ltd., Aberdeen, UK) was fitted with six 8 Watt UV tubes giving a wavelength of 302 nm (Vilber Lourmat, Collégien, France) [22]. Control plates were not exposed to UVB light. The thiobarbituric acid reactive substances (TBARS) was used to quantify the levels of melondialdehyde (a marker of lipid peroxidation) in the supernatant of UVB irradiated and non-irradiated cells. The experiments were conducted as previously described [45]. The optical density was measured at 532 nm with a reference wavelength of 600 nm using a plate reader. The mean optical density of five samples per treatment was calculated and divided by the absorption coefficient (156 mM^−1). Results were expressed as MDA concentration (μM).

HaCaT cells [9] = test: Reduced glutathione (GSH) quantification; format: cell-based, human
Method: as §1, §2

SK-MEL-1 cells [10] = test: Reduced glutathione (GSH) quantification; format: cell-based, human; conditions: SK-MEL-1 pre-treated cells
Method: as §1, §2

[11] = light or radiation study, UVB irradiation after pre-treatment 4 h
[12] = light or radiation study, UVB irradiation after pre-treatment 24 h
[13] = SK-MEL-1, SK-MEL-1, No UV, pre-treatment 4 h
[14] = SK-MEL-1, SK-MEL-1, No UV, pre-treatment 24 h
[15] = SK-MEL-1, light or radiation study, SK-MEL-1, UVB irradiation after pre-treatment 4 h
[16] = SK-MEL-1, light or radiation study, SK-MEL-1, UVB irradiation after pre-treatment 24 h

Q: How did the “ATP vs control cell levels” value (HaCaT cells [1]) turn out when `O=C(CCc1ccc(O)c(O)c1)c1c(O)cc(O)c2c1OC1(C2)O[C@@H](CO)[C@H](O)[C@H]1O` (relative stereo) [Compound 1, linearthin] was run?
A: maintain ATP above control cell levels

Q: And the “MDA levels (lipid peroxidation)” value (HaCaT cells [2]; 4-h pre-treatment, UVB exposed, vs cells with no isolate intervention)?
A: only the lowest concentration reduced MDA significantly

Q: What about the “MDA formation by UVB vs cells not exposed to UVB” value (HaCaT cells [2]; lowest concentration, 4-h pre-treatment, cell line not given) of the same molecule?
A: circumvent MDA formation by UVB to below levels observed in cells not exposed to UVB

Q: And the IC50 (HaCaT cells [3]; No UV, pre-treatment 4 h)?
A: 117 µg/mL (≈ 269 µM)

Q: And the IC50 (HaCaT cells [3]; No UV, pre-treatment 24 h)?
A: 105 µg/mL (≈ 242 µM)

Q: What about the IC50 (HaCaT cells [3]; [11]) of the same molecule?
A: 266 µg/mL (≈ 612 µM)

Q: And the IC50 (HaCaT cells [3]; [12])?
A: 282 µg/mL (≈ 649 µM)

Q: And the IC50 (SK-MEL-1 cells [4]; [13])?
A: 330 µg/mL (≈ 759 µM)

Q: What about the IC50 (SK-MEL-1 cells [4]; [14]) of the same molecule?
A: 124 µg/mL (≈ 285 µM)

Q: And the IC50 (SK-MEL-1 cells [4]; [15])?
A: 248 µg/mL (≈ 572 µM)

Q: What about the IC50 (SK-MEL-1 cells [4]; [16]) of the same molecule?
A: 143 µg/mL (≈ 328 µM)

Q: What about the “caspase 3/7 activation” value (HaCaT cells [5]) of the same molecule?
A: inhibited the activation of executioner caspases in a dose-dependent manner

Q: What about the “caspase 3/7 activation” value (SK-MEL-1 cells [6]) of the same molecule?
A: inhibited the activation of executioner caspases in a dose-dependent manner

Q: Which “ATP in UVB irradiated vs non-UVB irradiated cells” value (SK-MEL-1 cells [7]) does the source give for `O=C(CCc1ccc(O)c(O)c1)c1c(O)cc(O)c(C2OC(CO)C(O)C(O)C2O)c1O` (stereo not drawn) [Compound 2, aspalathin] here?
A: significantly increase ATP to above levels observed in non-UVB irradiated cells

Q: What about the “MDA levels (lipid peroxidation)” value (HaCaT cells [2]; 24-h pre-treatment, after UVB exposure) of the same molecule?
A: significant (p < 0.05) reduction in MDA levels at all tested concentrations

Q: And the IC50 (HaCaT cells [3]; No UV, pre-treatment 4 h)?
A: 209 µg/mL (≈ 462 µM)

Q: And the IC50 (HaCaT cells [3]; No UV, pre-treatment 24 h)?
A: 122 µg/mL (≈ 270 µM)

Q: And the IC50 (HaCaT cells [3]; [11])?
A: 399 µg/mL (≈ 882 µM)

Q: What about the IC50 (HaCaT cells [3]; [12]) of the same molecule?
A: 145 µg/mL (≈ 321 µM)

Q: What about the IC50 (SK-MEL-1 cells [4]; [13]) of the same molecule?
A: 93.6 µg/mL (≈ 207 µM)

Q: And the IC50 (SK-MEL-1 cells [4]; [14])?
A: 66.4 µg/mL (≈ 147 µM)

Q: And the IC50 (SK-MEL-1 cells [4]; [15])?
A: 72.2 µg/mL (≈ 160 µM)

Q: What about the IC50 (SK-MEL-1 cells [4]; [16]) of the same molecule?
A: 70 µg/mL (≈ 155 µM)

Q: And the “MDA levels (lipid peroxidation)” value (SK-MEL-1 cells [8])?
A: significant (p < 0.05) reduction in MDA levels at all tested concentrations

Q: And the GSH content (HaCaT cells [9]; pre-treatment 4 h, UVB exposed and non-exposed cells)?
A: only active at the lowest concentration tested

Q: And the GSH levels (HaCaT cells [9]; pre-treatment 24 h)?
A: only active at the lowest concentration tested

Q: What about the “GSH levels, resistance to UVB irradiation” value (SK-MEL-1 cells [10]) of the same molecule?
A: improved GSH levels

Q: And the “caspase 3/7 activation” value (HaCaT cells [5])?
A: inhibited the activation of executioner caspases in a dose-dependent manner

Q: And the “caspase 3/7 activation” value (SK-MEL-1 cells [6])?
A: inhibited the activation of executioner caspases in a dose-dependent manner

Q: What does the source list for `O=C(CCc1ccc(O)cc1)c1c(O)cc(O)c(C2OC(CO)C(O)C(O)C2O)c1O` (stereo not drawn) [Compound 3, nothofagin]?
A: ATP in UVB irradiated vs non-irradiated cells (HaCaT cells [1]; 100 µg/mL): increase ATP in UVB irradiated cells to above levels observed in non-irradiated cells; ATP vs control cell levels (HaCaT cells [1]): maintain ATP above control cell levels; ATP in UVB irradiated vs non-UVB irradiated cells (SK-MEL-1 cells [7]): significantly increase ATP to above levels observed in non-UVB irradiated cells; IC50 (HaCaT cells [3]; No UV, pre-treatment 4 h): 144 µg/mL (≈ 330 µM); IC50 (HaCaT cells [3]; No UV, pre-treatment 24 h): 123 µg/mL (≈ 282 µM); IC50 (HaCaT cells [3]; [11]): 196 µg/mL (≈ 450 µM); IC50 (HaCaT cells [3]; [12]): 164 µg/mL (≈ 376 µM); IC50 (SK-MEL-1 cells [4]; [13]): 208 µg/mL (≈ 477 µM); IC50 (SK-MEL-1 cells [4]; [14]): 210 µg/mL (≈ 482 µM); IC50 (SK-MEL-1 cells [4]; [15]): 119 µg/mL (≈ 273 µM); IC50 (SK-MEL-1 cells [4]; [16]): 123 µg/mL (≈ 282 µM); caspase 3/7 activation (HaCaT cells [5]): inhibited the activation of executioner caspases in a dose-dependent manner; caspase 3/7 activation (SK-MEL-1 cells [6]): inhibited the activation of executioner caspases in a dose-dependent manner
